Measurements published in the NIST ThermoML archive (doi:10.1016/j.tca.2016.02.008).
± gives the expanded uncertainty stated by the source.

What was measured:
[1] = Molar enthalpy of transition or fusion; settings: DSC
[2] = for Normal melting temperature: DTA

| SMILES | Molar enthalpy of transition or fusion ([1]; Crystal 1) [kcal/mol] | Molar enthalpy of transition or fusion ([1]; Crystal 2) [kcal/mol] | Normal melting temperature ([2]; Crystal 1) [°C] | Triple point temperature ([2]; Crystal 2, DSC) [K] | Molar enthalpy of transition or fusion ([1]; Crystal) [kcal/mol] | Normal melting temperature ([2]; Crystal) [°C] |
| --- | --- | --- | --- | --- | --- | --- |
| CCCCCCCC/C=C\CCCCCCCC(=O)O [(Z)-9-octadecenoic acid] | 8.99 ± 0.454 | 1.87 ± 0.1 | 13.70 ± 0.4 | 268.95 ± 0.8 | – | – |
| CCCCC/C=C\C/C=C\CCCCCCCC(=O)O [(Z,Z)-9,12-octadecadienoic acid] | – | – | – | – | 7.46 ± 0.382 | -5.40 ± 0.4 |
| CC/C=C\C/C=C\C/C=C\CCCCCCCC(=O)O [all-cis-9,12,15-octadecatrienoic acid] | – | – | – | – | 6.99 ± 0.359 | -10.90 ± 0.4 |
| CCCCCCCCCCCCCCCC(=O)O [hexadecanoic acid] | – | – | – | – | 12.9 ± 0.645 | 63.10 ± 0.4 |
| CCCCCCCCCCCCCCCCCC(=O)O [octadecanoic acid] | – | – | – | – | 15.1 ± 0.741 | 70.60 ± 0.4 |
